Assay results taken from US4272437A, “Antibacterial agents, and 4-thio azetidinone intermediates” (priority 1979, dated 1981).
≈ marks a conversion by molar mass, not a printed value. Where “and” joins values, the source holds several entries; their conditions need not be identical. Identical values can stand only once. Like-named read-outs stand apart in the source and are kept apart here.

How the values were obtained:
[1] = tested on: Providencia stuartii A21205; assay: MIC, tube dilution, Providencia stuartii (Pr. rettgeri) A21205; type: cell-based; conditions: for MIC: Providencia stuartii
Source text: (§1) Representative compounds of the present invention were subjected to in vitro antibiotic screening against a variety of microorganisms.

[2] = tested on: E. coli A-20341-1; assay: MIC, tube dilution, Escherichia coli A20341-1; type: cell-based
Source text: as §1

[3] = tested on: Staph. aureus A-9537; assay: MIC, tube dilution, Staphylococcus aureus A9537; type: cell-based; conditions: overnight 37° C., Nutrient Broth; for MIC: Staphylococcus aureus, A9537, Staph. aureus A9537, read-out: Minimum Inhibitory Concentration (M.I.C.)
Source text: as §1

[4] = tested on: Staph. aureus (Meth-Res) A-15097; assay: MIC, tube dilution, Staphylococcus aureus A15097 (Meth-Res); type: cell-based; conditions: overnight 37° C.; for MIC: Staphylococcus aureus
Source text: as §1

[5] = tested on: Ser. marcescens A-20019; assay: MIC, tube dilution, Serratia marcescens A20019; type: cell-based; conditions: overnight 37° C.; for Minimum Inhibitory Concentration (M.I.C.): Serratia marcescens A20019; for MIC: Serratia marcescens, A20019, Serratia marcescens A20019, read-out: Minimum Inhibitory Concentration (M.I.C.)
Source text: as §1

[6] = tested on: Klebsiella species A20468; assay: MIC, tube dilution, Klebsiella species A20468; type: cell-based; conditions: Klebsiella species (K. pneumoniae) A20468, overnight 37° C.; for MIC: read-out: Minimum Inhibitory Concentration (M.I.C.)
Source text: as §1

[7] = tested on: Pr. mirabilis A-9900; assay: MIC, tube dilution, Proteus mirabilis A9900; type: cell-based; conditions: overnight 37° C.; for Minimum Inhibitory Concentration (M.I.C.): Proteus mirabilis A9900; for MIC: Proteus mirabilis, A9900, Proteus mirabilis A9900, read-out: Minimum Inhibitory Concentration (M.I.C.)
Source text: as §1

[8] = tested on: S. aureus A9537; assay: In vivo protection of mice, lethal infection with S. aureus A9537; conditions: Staphylococcus aureus, A9537, im, read-out: PD50
Protocol: Representative compounds of the present invention were also tested in vivo in mice and their PD50 (dose of compound in mg/kg required to protect 50% of the treated mice against an otherwise lethal infection of a micro-organism) values determined with respect to the test organisms shown below.

[9] = tested on: K. pneumoniae A-15130; assay: MIC, tube dilution, Klebsiella pneumoniae A15130; type: cell-based; conditions: overnight 37° C.; for Minimum Inhibitory Concentration (M.I.C.): K. pneumoniae A15130; for MIC: Klebsiella pneumoniae, A15130, K. pneumoniae A15130, read-out: Minimum Inhibitory Concentration (M.I.C.)
Source text: as §1

[10] = tested on: Str. faecalis A-20688; assay: MIC, tube dilution, Streptococcus faecalis A20688; type: cell-based; conditions: overnight 37° C.; for MIC: Enterococcus faecalis, A20688, Str. faecalis A20688, read-out: Minimum Inhibitory Concentration (M.I.C.)
Source text: as §1

[11] = tested on: Pr. vulgaris A-9716; assay: MIC, tube dilution, Proteus vulgaris / Proteus mirabilis A9716; type: cell-based, Proteus vulgaris (name changed to Proteus mirabilis); conditions: overnight 37° C.; for Minimum Inhibitory Concentration (M.I.C.): Proteus vulgaris / Proteus mirabilis A9716; for MIC: Proteus vulgaris
Source text: as §1

[12] = tested on: Pr. morganii A-15153; assay: MIC, tube dilution, Proteus morganii A15153; type: cell-based; conditions: overnight 37° C.; for MIC: Morganella morganii, A15153, Proteus morganii A15153, read-out: Minimum Inhibitory Concentration (M.I.C.)
Source text: as §1

[13] = tested on: Ent. cloacae A-9659; assay: MIC, tube dilution, Enterobacter cloacae A9659; type: cell-based; conditions: overnight 37° C.; for Minimum Inhibitory Concentration (M.I.C.): Enterobacter cloacae A9659; for MIC: Enterobacter cloacae, A9659, Enterobacter cloacae A9659, read-out: Minimum Inhibitory Concentration (M.I.C.)
Source text: as §1

[14] = tested on: Staph. aureus (Pen-Res) A-9606; assay: MIC, tube dilution, Staphylococcus aureus A9606 (Pen-Res); type: cell-based; conditions: overnight 37° C.; for MIC: Staphylococcus aureus
Source text: as §1

[15] = tested on: Staph. aureus A-9537 and 50% serum; assay: MIC, tube dilution, Staph. aureus A9537 + 50% serum; type: cell-based, Staphylococcus aureus; conditions: overnight 37° C.; for MIC: Staphylococcus aureus, read-out: Minimum Inhibitory Concentration (M.I.C.)
Source text: as §1

[16] = tested on: E. coli A-15119; assay: MIC, tube dilution, Escherichia coli A15119; type: cell-based; conditions: overnight 37° C.; for Minimum Inhibitory Concentration (M.I.C.): E. coli A15119; for MIC: Escherichia coli, A15119, E. coli A15119, read-out: Minimum Inhibitory Concentration (M.I.C.)
Source text: as §1

[17] = tested on: Ps. aeruginosa A-9843A; assay: MIC, tube dilution, Pseudomonas aeruginosa A9843A; type: cell-based; conditions: Pseudomonas aeruginosa, A9843A, read-out: Minimum Inhibitory Concentration (M.I.C.), Pseudomonas aeruginosa A9843A; overnight 37° C.
Source text: as §1

[18] = tested on: Str. pneumoniae A-9585; assay: MIC, tube dilution, Streptococcus pneumoniae A9585; type: cell-based; conditions: Streptococcus pneumoniae, A9585, Str. pneumoniae A9585; overnight 37° C., Nutrient Broth; read-out: Minimum Inhibitory Concentration (M.I.C.)
Source text: as §1

[19] = tested on: Ent. cloacae A-9656; assay: MIC, tube dilution, Enterobacter cloacae A9656; type: cell-based; conditions: overnight 37° C., read-out: Minimum Inhibitory Concentration (M.I.C.)
Source text: as §1

[20] = tested on: Ps. aeruginosa A-21213; assay: MIC, tube dilution, Pseudomonas aeruginosa A21213; type: cell-based; conditions: overnight 37° C., read-out: Minimum Inhibitory Concentration (M.I.C.)
Source text: as §1

[21] = tested on: Str. pyogenes A-9604; assay: MIC, tube dilution, Streptococcus pyogenes A9604; type: cell-based; conditions: Streptococcus pyogenes, A9604, Str. pyogenes A9604; overnight 37° C., Nutrient Broth; read-out: Minimum Inhibitory Concentration (M.I.C.)
Source text: as §1

[22] = A21205, read-out: Minimum Inhibitory Concentration (M.I.C.)
[23] = A21205, Providencia stuartii (Pr. rettgeri) A21205, overnight 37° C., read-out: Minimum Inhibitory Concentration (M.I.C.)
[24] = Escherichia coli, A203411, E. coli A20341-1; overnight 37° C.; read-out: Minimum Inhibitory Concentration (M.I.C.)
[25] = Staph. aureus A15097 (Meth-Res), read-out: Minimum Inhibitory Concentration (M.I.C.)
[26] = A9716, Proteus vulgaris / Proteus mirabilis A9716, read-out: Minimum Inhibitory Concentration (M.I.C.)
[27] = Staph. aureus A9606 (Pen-Res), read-out: Minimum Inhibitory Concentration (M.I.C.)
[28] = Enterobacter cloacae, A9656, Enterobacter cloacae A9656
[29] = Escherichia coli, A203411; E. coli A20341-1; overnight 37° C.; read-out: Minimum Inhibitory Concentration (M.I.C.)
[30] = read-out: Minimum Inhibitory Concentration (M.I.C.), Staph. aureus A15097 (Meth-Res)
[31] = A9716, read-out: Minimum Inhibitory Concentration (M.I.C.), Proteus vulgaris / Proteus mirabilis A9716
[32] = read-out: Minimum Inhibitory Concentration (M.I.C.), Staph. aureus A9606 (Pen-Res)

SMILES	MIC [1, 22] [µg/mL]	MIC [1, 23] [µg/mL]	MIC [3] [µg/mL]	MIC [17] [µg/mL]	MIC [18] [µg/mL]	MIC [5] [µg/mL]	MIC [6] [µg/mL]	MIC [7] [µg/mL]	MIC [9] [µg/mL]	MIC [10] [µg/mL]	MIC [11, 26] [µg/mL]	MIC [12] [µg/mL]	MIC [13] [µg/mL]	MIC [14, 27] [µg/mL]	MIC ([20]; Pseudomonas aeruginosa A21213) [µg/mL]	MIC [21] [µg/mL]	MIC [15] [µg/mL]	MIC [16] [µg/mL]	MIC [2, 29] [µg/mL]	MIC ([19]; Enterobacter cloacae A9656) [µg/mL]	further results
O=C([O-])C1=C(Cc2ccccc2)S[C@@H]2CC(=O)N12.[Na+] [Example 13, Sodium 2-Benzylpenem-3-carboxylate]	4	–	–	–	–	–	–	–	–	–	–	–	–	–	–	–	–	–	–	–	Minimum Inhibitory Concentration (M.I.C.) ([2]; E. coli A20341-1; overnight 37° C.): 125 µg/mL; Minimum Inhibitory Concentration (M.I.C.) ([3]; Staph. aureus A9537): .13 µg/mL; Minimum Inhibitory Concentration (M.I.C.) ([4]; Staph. aureus A15097 (Meth-Res)): 63 µg/mL; Minimum Inhibitory Concentration (M.I.C.) [5]: 32 µg/mL and 63 µg/mL; Minimum Inhibitory Concentration (M.I.C.) [6]: 125 µg/mL; Minimum Inhibitory Concentration (M.I.C.) [7]: 2 µg/mL; ED50 [8]: 12.5 mg/kg; Minimum Inhibitory Concentration (M.I.C.) [9]: 63 µg/mL; Minimum Inhibitory Concentration (M.I.C.) ([10]; Str. faecalis A20688): 32 µg/mL; Minimum Inhibitory Concentration (M.I.C.) [11]: 2 µg/mL; Minimum Inhibitory Concentration (M.I.C.) ([12]; Proteus morganii A15153): 4 µg/mL; Minimum Inhibitory Concentration (M.I.C.) [13]: 63 µg/mL; Minimum Inhibitory Concentration (M.I.C.) ([14]; Staph. aureus A9606 (Pen-Res)): 1 µg/mL; Minimum Inhibitory Concentration (M.I.C.) [15]: > 63 µg/mL; Minimum Inhibitory Concentration (M.I.C.) [16]: 4 µg/mL
O=C(O)CCC1=C(C(=O)O)N2C(=O)CC2S1 (stereo not drawn) [Preparation 11, Disodium 2-(2-carboxyethyl)penem-3-carboxylate]	–	1	16	> 125	0.13	4	> 125	4	63	125	4	63	63	32	> 125	4	> 63	16	–	–	MIC [2, 24]: 63 µg/mL; MIC [4, 25]: 63 µg/mL; MIC [19, 28]: 63 µg/mL
O=C(O)C1=C(COc2ccccc2)S[C@@H]2CC(=O)N12 [Preparation 12, 2-Phenoxymethylpenem-3-carboxylic Acid]	–	63 (≈ 227 µM)	1 (≈ 3.61 µM)	> 125	0.5 (≈ 1.8 µM)	> 125	> 125	16 (≈ 57.7 µM)	> 125	63 (≈ 227 µM)	16 (≈ 57.7 µM)	16 (≈ 57.7 µM)	> 125	0.5 (≈ 1.8 µM)	> 125	0.5 (≈ 1.8 µM)	> 63	63 (≈ 227 µM)	> 125	> 125	MIC [4, 25]: 1 µg/mL (≈ 3.61 µM)
O=C(O)C1=C(c2ccco2)SC2CC(=O)N12 (stereo not drawn) [Preparation 13, 2-(2'-Furyl)penem-3-carboxylic Acid]	–	4 (≈ 16.9 µM)	1 (≈ 4.22 µM)	> 63	1 (≈ 4.22 µM)	16 (≈ 67.4 µM)	> 63	4 (≈ 16.9 µM)	32 (≈ 135 µM)	32 (≈ 135 µM)	4 (≈ 16.9 µM)	32 (≈ 135 µM)	63 (≈ 266 µM)	8 (≈ 33.7 µM)	–	1 (≈ 4.22 µM)	> 32	8 (≈ 33.7 µM)	–	–	MIC [2, 24]: > 63 µg/mL; MIC [4, 25]: 16 µg/mL (≈ 67.4 µM); MIC [19, 28]: 63 µg/mL (≈ 266 µM); MIC ([20]; Pseudomonas aeruginosa, A21213, Pseudomonas aeruginosa A21213): > 63 µg/mL
O=C([O-])C1=C(COCc2ccccc2)S[C@@H]2CC(=O)N12.[Na+] [Preparation 14 (Na^+ Salt), Sodium 2-(Benzyloxymethyl)penem-3-carboxylate]	63	–	0.5	> 125	0.03	63	> 125	2	125	32	–	16	32	–	> 125	0.06	32	16	> 125	125	MIC [4, 30]: > 125 µg/mL; Minimum Inhibitory Concentration (M.I.C.) [5]: 125 µg/mL; Minimum Inhibitory Concentration (M.I.C.) [7]: 1 µg/mL; Minimum Inhibitory Concentration (M.I.C.) [9]: > 125 µg/mL; Minimum Inhibitory Concentration (M.I.C.) [11]: 2 µg/mL; MIC [11, 31]: 4 µg/mL; Minimum Inhibitory Concentration (M.I.C.) [13]: 63 µg/mL; MIC [14, 32]: 32 µg/mL; Minimum Inhibitory Concentration (M.I.C.) [15]: 63 µg/mL; Minimum Inhibitory Concentration (M.I.C.) [16]: 8 µg/mL
CCCC1=C(C(=O)O)N2C(=O)C[C@H]2S1 [Preparation 15, 2-Propylpenem-3-carboxylic Acid]	–	16 (≈ 75 µM)	1 (≈ 4.69 µM)	> 125	1 (≈ 4.69 µM)	63 (≈ 295 µM)	> 125	16 (≈ 75 µM)	> 125	63 (≈ 295 µM)	16 (≈ 75 µM)	63 (≈ 295 µM)	> 125	16 (≈ 75 µM)	> 125	8 (≈ 37.5 µM)	> 63	16 (≈ 75 µM)	> 125	125 (≈ 586 µM)	Minimum Inhibitory Concentration (M.I.C.) ([1]; Providencia stuartii (Pr. rettgeri) A21205, overnight 37° C.): 32 µg/mL; MIC [4, 30]: 125 µg/mL (≈ 586 µM); Minimum Inhibitory Concentration (M.I.C.) [5]: 125 µg/mL; Minimum Inhibitory Concentration (M.I.C.) [13]: 125 µg/mL; MIC [19, 28]: 63 µg/mL (≈ 295 µM)
COC1=C(C(=O)[O-])N2C(=O)C[C@H]2S1.[Na+] [Preparation 17, Sodium 2-Methoxypenem-3-carboxylate]	> 63	–	> 2	> 63	> 2	> 63	> 63	> 63	> 63	> 63	–	> 63	> 63	–	> 63	> 2	> 32	> 63	> 63	> 63	MIC [4, 30]: > 63 µg/mL; MIC [11, 31]: > 63 µg/mL; MIC [14, 32]: > 63 µg/mL
